In ChEMBL document CHEMBL5584300, “Bioinformatic Approaches Identify Hybrid Antibiotics against Tuberculosis via d-Amino Acid-Activating Adenylation Domains from Cordyceps militaris” (J Nat Prod, 2024) one finds MIC, IC50 and Activity data, which are given here for ten molecules.

Data set [1] has as its system Staphylococcus aureus. Briefly: Antibacterial activity against Staphylococcus aureus ATCC 6538P assessed as reduction in microbial growth incubated for 20 hrs by CLSI based broth microdilution method. In kind it is functional. A general note: Dilution methods test growth across graded concentrations, often in twofold steps.
The nature of data set [2]: Cytotoxicity against human HGC-27 cells assessed as reduction in cell viability incubated for 48 hrs by sulforhodamine B assay. The data set is classed as toxicity, cell-based.
In data set [3] the test system is Mycobacterium tuberculosis. Nature of the data set: Antitubercular activity against Mycobacterium tuberculosis H37Rv ATCC 27294 assessed as reduction in microbial growth incubated for 6 days under aerobic condition by microplate Alamar Blue assay. The data set is classed as functional. The note with it: H37Rv ATCC 27294, 144 h, time 6 day.
The subject of data set [4] is Staphylococcus aureus. Nature of the data set: Antibacterial activity against Staphylococcus aureus ATCC 25923 assessed as reduction in microbial growth incubated for 20 hrs by CLSI based broth microdilution method. In kind it is functional.
The test system of data set [5] is Enterococcus faecalis. Nature of the data set: Antibacterial activity against Enterococcus faecalis ATCC 29212 assessed as reduction in microbial growth incubated for 20 hrs by CLSI based broth microdilution method. In kind it is functional.
Data set [6] concerns Mycolicibacterium smegmatis. Nature of the data set: Antitubercular activity against Mycobacterium smegmatis mc2 155 assessed as reduction in microbial growth incubated for […] by CLSI based broth microdilution method. In kind it is functional.
The nature of data set [7]: Cytotoxicity against human HepG2 cells assessed as reduction in cell viability incubated for 48 hrs by sulforhodamine B assay. In kind it is toxicity, cell-based. A general note: The SRB assay estimates cell density from bound dye.
Data set [8] has as its system Staphylococcus aureus. Nature of the data set: Antibacterial activity against methicillin-resistant Staphylococcus aureus ATCC 6538 assessed as reduction in microbial growth incubated for 20 hrs by CLSI based broth microdilution method. The data set is classed as functional.
In data set [9] the test system is Mycobacterium tuberculosis. Briefly: Antitubercular activity against Mycobacterium tuberculosis H37Rv ATCC 27294 assessed as reduction in microbial growth incubated for 6 days under anaerobic condition by microplate Alamar Blue assay. The data set is classed as functional. The note with it: H37Rv ATCC 27294, 144 h, time 6 day.
A short description of data set [10]: Cytotoxicity against human DLD-1 cells assessed as reduction in cell viability incubated for 48 hrs by sulforhodamine B assay. In kind it is toxicity, cell-based.
Data set [11] is described as follows: Cytotoxicity against human Hep3B cells assessed as reduction in cell viability incubated for 48 hrs by sulforhodamine B assay. In kind it is toxicity, cell-based, Hep 3B2.
In data set [12] the test system is Bacillus subtilis. Nature of the data set: Antibacterial activity against Bacillus subtilis ATCC 9372 assessed as reduction in microbial growth incubated for 20 hrs by CLSI based broth microdilution method. In kind it is functional.
Data set [13] relates to Mycobacterium tuberculosis. Briefly: Antitubercular activity against Mycobacterium tuberculosis H37Rv ATCC 27294 infected in BALB/c mouse assessed as log reduction in lung at 160 mg/kg measured after 4 weeks. In kind it is functional.
Data set [14] relates to Enterococcus faecalis. Briefly: Antibacterial activity against vancomycin-resistant Enterococcus faecalis ATCC 51299 assessed as reduction in microbial growth incubated for 20 hrs by CLSI based broth microdilution method. In kind it is functional.
In data set [15] the test system is Mycobacterium tuberculosis. Briefly: Antitubercular activity against Mycobacterium tuberculosis H37Rv ATCC 27294 infected in BALB/c mouse assessed as reduction in bacterial count at 80 mg/kg measured after 4 weeks relative to control. The data set is classed as functional. On the set-up: scale not given: the % may be the effect or the level left.
In data set [16] the test system is Mycobacterium tuberculosis. Briefly: Antitubercular activity against Mycobacterium tuberculosis H37Rv ATCC 27294 infected in BALB/c mouse chronic model assessed as log reduction in lung at 320 mg/kg drug administered twice daily after 28 days post infection and measured after 4 weeks. In kind it is functional.
For data set [17], the system named is Mycobacterium tuberculosis. Nature of the data set: Antitubercular activity against Mycobacterium tuberculosis H37Rv ATCC 27294 infected in BALB/c mouse assessed as reduction in bacterial count at 10 to 40 mg/kg measured after 4 weeks. In kind it is functional, organism-based. To be noted: dose 10-40 mg/kg.
The test system of data set [18] is Mycobacterium tuberculosis. Nature of the data set: Bactericidal activity against Mycobacterium tuberculosis H37Rv ATCC 27294 assessed as reduction in bacterial count at 16 time MIC by time kill assay. In kind it is functional, organism-based. To be noted: time 2-10 day, TDE = time-dependent effect.
Data set [19] relates to Mycobacterium tuberculosis. Briefly: Bactericidal activity against Mycobacterium tuberculosis H37Rv ATCC 27294 expressing pFCA-luxAB assessed as reduction in bacterial count at 16 times MIC preincubated for 10 days under hypoxic condition followed by aerobic condition for 28 hrs by LORA. The data set is classed as functional, organism-based. To be noted: time 268.0 hrs.

The subject of data set [20] is Mycobacterium tuberculosis. Briefly: Antitubercular activity against Mycobacterium tuberculosis H37Rv ATCC 27294 infected in BALB/c mouse assessed as reduction in bacterial count measured after 4 weeks. In kind it is functional, organism-based. To be noted: dose 160-640 mg/kg.
Data set [21] concerns Staphylococcus aureus. Nature of the data set: Antibacterial activity against methicillin-resistant Staphylococcus aureus ATCC 43300 assessed as reduction in microbial growth incubated for 20 hrs by CLSI based broth microdilution method. The data set is classed as functional.
Data set [22] relates to Escherichia coli. Briefly: Antibacterial activity against Escherichia coli ATCC 25922 assessed as reduction in microbial growth incubated for 20 hrs by CLSI based broth microdilution method. The data set is classed as functional.
Data set [23] relates to Mycobacterium tuberculosis. Briefly: Antitubercular activity against Mycobacterium tuberculosis H37Rv ATCC 27294 infected in BALB/c mouse chronic model assessed as log reduction in lung at 10 mg/kg drug administered after 28 days post infection and measured after 4 weeks. In kind it is functional.
The test system of data set [24] is Mycobacterium tuberculosis. Briefly: Antitubercular activity against Mycobacterium tuberculosis H37Rv ATCC 27294 infected in BALB/c mouse assessed as log reduction in lung at 10 mg/kg measured after 4 weeks. The data set is classed as functional.
Data set [25] has as its system Mycobacterium tuberculosis. Briefly: Antitubercular activity against Mycobacterium tuberculosis H37Rv ATCC 27294 assessed as reduction in microbial growth incubated for 6 days by microplate Alamar Blue assay. The data set is classed as functional. The note with it: H37Rv ATCC 27294, 144 h, time 6 day. On the technique in general: The colour change of resazurin is a common sign of viable cells or microbes.

In data set [26] the test system is Mycobacterium tuberculosis. Nature of the data set: Antitubercular activity against Mycobacterium tuberculosis H37Rv ATCC 27294 infected in BALB/c mouse assessed as reduction in bacterial count in lung at 10 mg/kg measured after 4 weeks. The data set is classed as functional, organism-based.

Molecules are shown by their SMILES. Values after ≈ are worked out from the molar mass of the structure shown. Active and inactive are the calls of the source. No cut-off for these calls is given here.

A word on the MIC: it is the lowest concentration that inhibits growth of the organism. For orientation: IC50 means the point on the concentration scale where inhibition reaches its midpoint. For `CC1=C[C@H]2C[C@@H](C)CC[C@]2(C)[C@@](C)(C(=O)C2=C(O)[C@@H](CO)N(C)C2=O)[C@H]1/C=C/C=C/C=C/C[C@@H](C)O`, the MIC in data set [1] stood at 8 µg/mL; in [3], 0.016 µg/mL; in [4], 8 µg/mL; in data set [5] it was 4 µg/mL; in [6], 0.25 µg/mL; in [8] it was 4 µg/mL. In addition, the MIC was over 64 µg/mL in data set [9]; 8 µg/mL in data set [12]; 8 µg/mL in [14]; 4 µg/mL in [21]; over 64 µg/mL in data set [22]. The concentration for half-maximal inhibition (IC50) at 48 h in [2] is over 64000 ng/mL; in [7] it was over 64 µg/mL; in data set [10] it was over 64 µg/mL; in [11] it was over 64 µg/mL. Further, the Activity is 2 log10CFU in data set [13]; 100% in [15]; 2.3 log10CFU in data set [16]; “Dose-Dependent Effect” in data set [17]; “Tde” in [18]; “Dose-Dependent Effect” in [20]. The result in data set [19] was inactive.
Consider `NNC(=O)c1ccncc1` [ISONIAZID], for which the Activity in data set [23] was determined as 3 log10CFU; in data set [24], 2.5 log10CFU.
Regarding `CC1=C[C@H]2C[C@@H](C)CC[C@@H]2[C@@](C)(C(=O)C2=C(O)[C@H](CO)N(C)C2=O)[C@H]1/C=C/C=C/C=C/C[C@@H](C)O`, the figures for the minimal inhibitory concentration (MIC) in [3], in data set [6] and in data set [9] were 1 µg/mL, over 64 µg/mL and over 64 µg/mL, respectively.
On to `CC1(C)S[C@@H]2[C@H](NC(=O)[C@H](N)c3ccccc3)C(=O)N2[C@H]1C(=O)O` [AMPICILLIN], for which the MIC in data set [1] is over 64 µg/mL; in [4], 4 µg/mL; in data set [5], 2 µg/mL; in data set [8], 2 µg/mL; in data set [12], 4 µg/mL; in [14] it was 4 µg/mL. Besides, in [21], the MIC was over 64 µg/mL.
Take `CO[C@H]1/C=C/O[C@@]2(C)Oc3c(C)c(O)c4c(O)c(c(/C=N/N5CCN(C)CC5)c(O)c4c3C2=O)NC(=O)/C(C)=C\C=C\[C@H](C)[C@H](O)[C@@H](C)[C@@H](O)[C@@H](C)[C@H](OC(C)=O)[C@@H]1C` [RIFAMPIN]: the MIC was 0.25 µg/mL in [25], 0.25 µg/mL in data set [3], 16 µg/mL in data set [6] and over 64 µg/mL in [9]. Moreover, the result in data set [26] was inactive. For the same molecule, the Activity in data set [23] was found to be 3 log10CFU.
In the case of `CC(=O)O[C@H]1C(=O)[C@@]2(C)[C@H]([C@H](OC(=O)c3ccccc3)[C@]3(O)C[C@H](OC(=O)[C@H](O)[C@@H](NC(=O)c4ccccc4)c4ccccc4)C(C)=C1C3(C)C)[C@]1(OC(C)=O)CO[C@@H]1C[C@@H]2O` [PACLITAXEL], the results for the IC50 at 48 h in data set [2], in data set [7] and in data set [10] were 8 ng/mL (≈ 0.00937 µM), 0.016 µg/mL (≈ 0.0187 µM) and 0.031 µg/mL (≈ 0.0363 µM), respectively.
For the molecule `CC1=C[C@@H]2C[C@@H](C)CC[C@]2(C)[C@@](C)(C(=O)C2=C(O)[C@@H](CO)NC2=O)[C@H]1/C=C/C=C/C=C/C[C@@H](C)O`, the values for the MIC in [3], in [6] and in data set [9] were 2 µg/mL, over 64 µg/mL and over 64 µg/mL, respectively.
`CC1=C[C@H]2C[C@@H](C)CC[C@]2(C)[C@@](C)(C(=O)C2=C(O)[C@@H](CO)NC2=O)[C@H]1/C=C/C=C/C=C/C[C@@H](C)O`: the MIC in data set [3] was 0.5 µg/mL; in [6], over 64 µg/mL; in data set [9], over 64 µg/mL.
As to `C/C=C/[C@@H]1C=C[C@@H]2C[C@H](C)CC[C@H]2[C@]1(C)/C(O)=C1/C(=O)[C@H](CO)N(C)C1=O`, in [25], the minimal inhibitory concentration (MIC) is over 64 µg/mL.
Turning to `C/C=C/C=C/[C@H]1C(C)=C[C@H]2C[C@@H](C)CC[C@@H]2[C@@]1(C)/C(O)=C1/C(=O)[C@@H](CO)N(C)C1=O`, the MIC in data set [25] came to 16 µg/mL.
